Test results reported in publication PMC10692477 (Acta Pharmaceutica Sinica. B, 2023).
Where “and” joins values, the source holds several entries; their conditions need not be identical. Equal values may be shown once.

Key:
AXL kinase = biological target: T1, AXL kinase (Homo sapiens, UniProt P30530); assay: AXL kinase inhibition, ELISA; format: biochemical; conditions: for inhibition at 0.1 µM: read-out: inhibition rate AXL kinase; for IC50: IC50 AXL kinase, ELISA, mean ± SD of two independent experiments
T1 sequence (P30530 26-894): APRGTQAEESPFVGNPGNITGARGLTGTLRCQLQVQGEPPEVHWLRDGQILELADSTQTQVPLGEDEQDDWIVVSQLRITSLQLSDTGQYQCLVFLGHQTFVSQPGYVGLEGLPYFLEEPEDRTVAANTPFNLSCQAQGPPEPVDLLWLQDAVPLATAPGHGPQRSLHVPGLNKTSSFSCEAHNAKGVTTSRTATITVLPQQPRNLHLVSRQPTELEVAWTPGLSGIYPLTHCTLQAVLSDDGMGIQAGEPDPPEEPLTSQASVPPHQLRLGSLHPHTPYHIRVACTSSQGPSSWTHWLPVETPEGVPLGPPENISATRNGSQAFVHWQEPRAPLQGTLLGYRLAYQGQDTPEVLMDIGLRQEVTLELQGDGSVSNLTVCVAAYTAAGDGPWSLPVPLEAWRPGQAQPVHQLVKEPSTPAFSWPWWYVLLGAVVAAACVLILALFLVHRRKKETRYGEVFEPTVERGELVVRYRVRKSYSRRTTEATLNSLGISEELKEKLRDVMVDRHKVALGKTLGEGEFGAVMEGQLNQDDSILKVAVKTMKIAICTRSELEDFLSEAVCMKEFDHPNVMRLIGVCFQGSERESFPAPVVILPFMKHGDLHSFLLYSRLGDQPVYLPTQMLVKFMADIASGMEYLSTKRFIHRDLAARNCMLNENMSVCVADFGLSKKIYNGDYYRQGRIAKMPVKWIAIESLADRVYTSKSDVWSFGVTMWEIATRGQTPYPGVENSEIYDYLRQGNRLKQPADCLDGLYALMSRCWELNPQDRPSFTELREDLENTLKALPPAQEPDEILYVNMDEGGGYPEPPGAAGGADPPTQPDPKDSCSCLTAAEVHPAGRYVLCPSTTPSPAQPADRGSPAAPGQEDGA

BaF3/TEL-AXL cells = assay: BaF3/TEL-AXL cell viability; format: cell-based; conditions: 48 h, read-out: IC50 Cell viability
[1] = Pharmacokinetics in ICR mice; format: in vivo; conditions: mouse, serum

inhibition at 0.1 µM (AXL kinase) | IC50 (BaF3/TEL-AXL cells) | IC50 (AXL kinase) | SMILES | further results
-17.7% |  |  | O=C(Nc1ccc(Oc2ccc3nncn3n2)cc1)c1c2n(n(-c3ccccc3)c1=O)CCCC2 [Compound 12] | 
-18.9% |  |  | O=C(Nc1ccc(Oc2ccn3nccc3n2)cc1)c1c2n(n(-c3ccccc3)c1=O)CCCC2 [Compound 13] | 
-6% |  |  | COc1nc(OC)nc(Oc2ccc(NC(=O)c3c4n(n(-c5ccccc5)c3=O)CCCC4)cc2)n1 [Compound 14] | 
 | < 0.1 nM |  | COc1cc2ncnc(Oc3ccc(NC(=O)c4c5n(n(-c6ccccc6)c4=O)CCCC5)cc3F)c2cc1OC [Compound 16] | 
 | < 0.1 nM |  | COc1cc2ncnc(Oc3ccc(NC(=O)c4c5n(n(-c6ccccc6F)c4=O)CCCC5)cc3F)c2cc1OC [Compound 17] | 
 | < 0.1 nM |  | COc1cc2ncnc(Oc3ccc(NC(=O)c4c5n(n(-c6ccc(F)cc6)c4=O)CCCC5)cc3F)c2cc1OC [Compound 19] | 
 | 7 ± 4.2 nM | 10.5 ± 0.5 nM | COc1cc2ncnc(Oc3ccc(NC(=O)c4c5n(n(-c6ccccc6Cl)c4=O)CCCC5)cc3F)c2cc1OC [Compound 20] | 
 |  | 42.6 ± 6.2 nM | COc1cc2ncnc(Oc3ccc(NC(=O)c4c5n(n(-c6ccc(Cl)cc6)c4=O)CCCC5)cc3F)c2cc1OC [Compound 21] | 
 | 7.6 ± 4.1 nM | 15.7 ± 1.7 nM | COc1cc2ncnc(Oc3ccc(NC(=O)c4c5n(n(-c6ccccc6C)c4=O)CCCC5)cc3F)c2cc1OC [Compound 22] | 
 |  | 27.3 ± 2.6 nM | COc1cc2ncnc(Oc3ccc(NC(=O)c4c5n(n(-c6ccc(C)cc6)c4=O)CCCC5)cc3F)c2cc1OC [Compound 23] | 
 | < 0.1 nM |  | COc1cc2ncnc(Oc3ccc(NC(=O)c4c5n(n(-c6cc(F)ccc6F)c4=O)CCCC5)cc3F)c2cc1OC [Compound 24] | AUC(0-inf) ([1]; iv, 5 mg/kg): 49100 ng·h/mL; AUC(0-t) ([1]; iv, 5 mg/kg): 48900 ng·h/mL; clearance ([1]; iv, 5 mg/kg): 1.7 mL/min/kg; half-life ([1]; iv, 5 mg/kg): 3.38 h; AUC(0-inf) ([1]; po, 10 mg/kg): 14200 ng·h/mL; AUC(0-t) ([1]; po, 10 mg/kg): 13500 ng·h/mL; Cmax ([1]; po, 10 mg/kg): 1490 ng/mL; Tmax ([1]; po, 10 mg/kg): 2 h; bioavailability ([1]; po, 10 mg/kg): 13.8%; half-life ([1]; po, 10 mg/kg): 6.77 h
 |  | 78.4 ± 2.1 nM | COc1cc2ncnc(Oc3ccc(NC(=O)c4c5n(n(-c6cc(C)ccc6C)c4=O)CCCC5)cc3F)c2cc1OC [Compound 25] | 
 |  | 25.1 ± 1.6 nM | COc1cc2ncnc(Oc3ccc(NC(=O)c4c5n(n(-c6ccc(F)cc6F)c4=O)CCCC5)cc3F)c2cc1OC [Compound 27] | 
 | 2.3 ± 0.4 nM | 10 ± 1.4 nM | COc1cc2ncnc(Oc3ccc(NC(=O)c4c5n(n(-c6ccccc6)c4=O)CCCC5)c(F)c3)c2cc1OC [Compound 29] | 
 | < 0.1 nM | 13.4 ± 0.8 nM | COc1cc2ncnc(Oc3ccc(NC(=O)c4c5n(n(-c6ccccc6F)c4=O)CCCC5)c(F)c3)c2cc1OC [Compound 30] | 
 |  | 30.5 ± 4.9 nM | COc1cc2ncnc(Oc3ccc(NC(=O)c4c5n(n(-c6ccc(F)cc6)c4=O)CCCC5)c(F)c3)c2cc1OC [Compound 31] | 
 |  | 37 ± 1.4 nM | COc1cc2ncnc(Oc3ccc(NC(=O)c4c5n(n(-c6cc(F)ccc6F)c4=O)CCCC5)c(F)c3)c2cc1OC [Compound 32] | 
 | 1650 ± 444 nM | 16.9 ± 2.5 nM | COc1cc2ncnc(Oc3ccc(NC(=O)c4c5n(n(-c6ccccc6)c4=O)CCCC5)cc3Cl)c2cc1OC [Compound 33] | 
 |  | 30.9 ± 1.4 nM | COc1cc2ncnc(Oc3ccc(NC(=O)c4c5n(n(-c6ccccc6F)c4=O)CCCC5)cc3Cl)c2cc1OC [Compound 34] | 
 |  | 19.6 ± 1.9 nM | COc1cc2ncnc(Oc3ccc(NC(=O)c4c5n(n(-c6ccc(F)cc6)c4=O)CCCC5)cc3Cl)c2cc1OC [Compound 35] | 
 | 3630 ± 494 nM | 6.6 ± 2.9 nM | COc1cc2ncnc(Oc3ccc(NC(=O)c4c5n(n(-c6cc(F)ccc6F)c4=O)CCCC5)cc3Cl)c2cc1OC [Compound 36] | 
23.2% |  |  | COc1cc2ncnc(Oc3ccc(NC(=O)c4c5n(n(-c6ccccc6)c4=O)CCCC5)cc3C)c2cc1OC [Compound 37] | 

inhibition at 0.1 µM (AXL kinase) | IC50 (BaF3/TEL-AXL cells) | IC50 (AXL kinase) | SMILES | further results
32.3% |  |  | COc1cc2ncnc(Oc3ccc(NC(=O)c4c5n(n(-c6ccccc6F)c4=O)CCCC5)cc3C)c2cc1OC [Compound 38] | 
15.6% |  |  | COc1cc2ncnc(Oc3ccc(NC(=O)c4c5n(n(-c6ccc(F)cc6)c4=O)CCCC5)cc3C)c2cc1OC [Compound 39] | 
35.7% |  |  | COc1cc2ncnc(Oc3ccc(NC(=O)c4c5n(n(-c6cc(F)ccc6F)c4=O)CCCC5)cc3C)c2cc1OC [Compound 40] | 
56.4% |  |  | COc1cc2ncnc(Oc3ccc(NC(=O)c4c5n(n(-c6ccccc6)c4=O)CCCC5)cc3OC)c2cc1OC [Compound 41] | 
28% |  |  | COc1cc2ncnc(Oc3ccc(NC(=O)c4c5n(n(-c6ccccc6F)c4=O)CCCC5)cc3OC)c2cc1OC [Compound 42] | 
19.9% |  |  | COc1cc2ncnc(Oc3ccc(NC(=O)c4c5n(n(-c6ccc(F)cc6)c4=O)CCCC5)cc3OC)c2cc1OC [Compound 43] | 
59.4% |  |  | COc1cc2ncnc(Oc3ccc(NC(=O)c4c5n(n(-c6ccccc6)c4=O)CCCC5)cc3C(F)(F)F)c2cc1OC [Compound 45] | 
47.9% |  |  | COc1cc2ncnc(Oc3ccc(NC(=O)c4c5n(n(-c6ccccc6F)c4=O)CCCC5)cc3)c2cc1OC [Compound 49] | 
 | 7.8 ± 0.7 nM |  | COc1cc2ncnc(Oc3ccc(NC(=O)c4c5n(n(-c6cc(F)ccc6F)c4=O)CCCC5)cc3)c2cc1OC [Compound 50] | 
 | 3.3 ± 1.4 nM | 16.8 ± 3.5 nM | COc1cc2ncnc(Oc3ccc(NC(=O)c4c5n(n(-c6ccccc6)c4=O)CCCC5)nc3)c2cc1OC [Compound 51] | 
41% |  |  | COc1cc2ncnc(Oc3ccc(NC(=O)c4c5n(n(-c6ccccc6)c4=O)CCCC5)c4ccccc34)c2cc1OC [Compound 52] | 
41.4% |  |  | COc1cc2ncnc(Oc3ccc(NC(=O)c4c5n(n(-c6ccccc6F)c4=O)CCCC5)c4ccccc34)c2cc1OC [Compound 53] | 
39% |  |  | COc1cc2ncnc(Oc3ccc(NC(=O)c4c5n(n(-c6ccc(F)cc6)c4=O)CCCC5)c4ccccc34)c2cc1OC [Compound 54] | 
50.4% |  |  | COc1cc2ncnc(Oc3ccc(NC(=O)c4c5n(n(-c6cc(F)ccc6F)c4=O)CCCC5)c4ccccc34)c2cc1OC [Compound 55] | 
 | 1 ± 0.2 nM | 4 ± 0.4 nM | COc1cc2nccc(Oc3ccc(NC(=O)c4c5n(n(-c6ccccc6)c4=O)CCCC5)cc3)c2cc1OC [Compound 56] | 
 | < 0.1 nM |  | COc1cc2nccc(Oc3ccc(NC(=O)c4c5n(n(-c6ccccc6)c4=O)CCCC5)cc3F)c2cc1OC [Compound 57] | 
50.9% |  |  | COc1cc2nccc(Oc3ccc(NC(=O)c4c5n(n(-c6ccccc6)c4=O)CCCC5)cn3)c2cc1OC [Compound 58] | 
 | < 0.2 nM | < 10 nM and 1.2 nM | COc1cc2nccc(Oc3ccc(NC(=O)c4c5n(n(-c6cc(F)ccc6F)c4=O)CCCC5)cc3)c2cc1OC [Compound 60] | 
 | < 0.2 nM | < 10 nM and 0.7 nM | COc1cc2nccc(Oc3ccc(NC(=O)c4c5n(n(-c6cc(F)ccc6Cl)c4=O)CCCC5)cc3)c2cc1OC [Compound 61] | 
 | 0.7 ± 0.3 nM | < 10 nM and 6.1 nM | COc1cc2nccc(Oc3ccc(NC(=O)c4c5n(n(-c6ccc(F)cc6F)c4=O)CCCC5)cc3)c2cc1OC [Compound 62] | 
 | < 0.2 nM | < 10 nM and 2.3 nM | COc1cc2nccc(Oc3ccc(NC(=O)c4c5n(n(-c6ccc(F)cc6Cl)c4=O)CCCC5)cc3)c2cc1OC [Compound 63] | 
